In publication PMC9423655, “Huntington’s disease phenotypes are improved via mTORC1 modulation by small molecule therapy” (PLoS ONE, 2022):

How the values were obtained:
Assay type in all cases: in vivo
N171-82Q HD mice [1] = experiment: Chronic 6-week treatment: echocardiography and heart weight; details: N171-82Q mice, 160 mg/kg daily 6 weeks
From the text: Animals were sacrificed by live decapitation one hour after the last oral dosing. Whole hearts were excised, blot-dried and weighed on an analytical balance. The heart was bisected transversely and the apical halves was preserved for cardiomyocyte and fibrosis staining. Left tibias were isolated and measured with an electronic caliper. The brain left hemisphere was preserved for MSN size measurement. The brain right hemisphere was microdissected and the medial pre-frontal cortex, striatum, cortex, hippocampus and cerebellum were collected.
Mice were anesthetized with 2% isoflurane and restrained on a stage with electrocardiogram (EKG) sensors. Transthoracic echocardiograms were performed using the Vevo 3100 Imaging System with a linear array MX550D transducer. Images were acquired by an experienced echocardiographer and then analyzed offline using the Vevo LAB analysis software. Parasternal long axis views and short axis views were used to assess left ventricular function. Measurements were performed to evaluate left ventricular dimensions during both systole and diastole of the cardiac cycle. The Vevo LAB left ventricle [LV] analysis tool, LV trace, was used to calculate cardiac output [CO] (heart rate ∙ stroke volume), fractional shortening [FS] (ventricle diameter at the end of the diastole–ventricle diameter at the end of the systole), ejection fraction [EF] (percentage of blood ejected by the left ventricle by heart beat), stroke volume (SV) (blood volume ejected from the left ventricle per beat), heart rate [HR] (bpm), left ventricular mass [LVmass], dimensions and volumes. Both imaging and analysis were performed by an operator blinded to the mice experimental treatment.
Fig 5 Oral dosing with NV-5297 over 6 weeks improves cardiac function and activates the mTORC1 pathway. […] (E) Quantification of the immunoblots for homogenized heart isolated 1 hour after oral dosing with NV-5297 (160 mg/kg; n = 14) normalized to loading control levels and further normalized to vehicle (Veh) treated mice (n = 15). […]

mTORC1 pathway (pS6) = experiment: pS6 immunoblot of tissues after one oral dose in C57BL/6 mice; details: single oral 160 mg/kg
Description: Specific regions of the brain and heart were homogenized using a Next Advance Bullet Blender Storm in Lysis Buffer (Cell lysis buffer: 1% Triton X-100, 50 mM HEPES pH 7.4, 100 mM sodium chloride, 2 mM EDTA, 10 mM Beta-glycerophosphate, 10 mM Sodium pyrophosphate, and 1 protease inhibitor) at 4°C. Lysates were cleared by centrifugation at 13,200 rpm at 4°C for 10 minutes. Equal amounts of total protein from each sample were denatured and, resolved by SDS-PAGE. Membranes were imaged using the LI-COR imaging system. Proteins levels are normalized to tubulin, actin or GAPDH levels and further normalized to vehicle treated mice for each tissue.
Fig 1 NV-5297 is a leucine analog activating the mTORC1 pathway in the brain and peripheral tissues. (A) NV-5297 chemical structure. Representative immunoblots of phosphorylated S6 (^S240/244pS6) from homogenized tissues from C57BL/6 mice orally dosed once with NV-5297 (160 mg/kg) and sacrificed 1 hour later (B) and quantification of the immunoblots normalized to loading controls and vehicle treated mice (n = 10 per treatment) (C). […]

N171-82Q HD mice [2] = experiment: Chronic 6-week treatment: weight, forelimb grip strength, accelerating rotarod; details: N171-82Q mice
Description: The initial trial consisted in one week of oral dosing in 12 weeks old N171-82Q males. The chronic 6 weeks treatment (Veh n = 15, NV-5297 n = 14) took place from 6 to 12 weeks of age. The cardiac stress took place in animals from 10 to 12 weeks of age (Veh-Sal n = 9, NV-Sal n = 10, Veh-Iso n = 16, NV-Iso n = 11).
The accelerated rotarod (model 47600; Ugo Basile, Comerio, Italy) test was carried out as previously described. Mice were tested at 5 (baseline) and 12 weeks of age. Briefly, mice were habituated to the test room for an hour. On the first day, mice were trained on the rotarod for 5 minutes at 4 rpm. Mice were then tested in three trials per day (with at least 30 minutes of rest between trials) for four consecutive days. For each trial, the rotarod accelerated from 4 to 40 rpm over 4 minutes with constant speed at 40 rpm for an additional minute. Trials were stopped at 300 seconds. Latency to fall (or two consecutive rotations without running) was recorded for every trial. For grip strength, mice were tested at 5 (baseline), 9 and 12 weeks of age. Mice were habituated to the test room for 1 hour. The mouse held a pull bar with both paws and are then pulled horizontally until they let go of the pull bar. Forelimb grip strength at the peak tension was measured five times per mice (Columbus Instrument). There were at least 30 minutes of rest between trials. The grip strength is calculated as the average of the four highest grip strength recorded.

[3] = oral 160 mg/kg daily for 6 weeks

For `CC(C)(C[C@H](N)C(=O)O)C(F)(F)F` [NV-5297, (S)-2-amino-5,5,5-trifluoro-4,4-dimethylpentanoic acid], the heart mass (N171-82Q HD mice [1]) was “no discernable effect”, the “ejection fraction compared to vehicle” value (N171-82Q HD mice [1]; echocardiography) was “increased” and the “fractional shortening compared to vehicle” value (N171-82Q HD mice [1]; echocardiography) was “increased”. For the same molecule, the “pS6 in brain regions relative to controls” value (mTORC1 pathway (pS6); sacrificed 1 hour later) was “increased pS6 in all regions sampled”, the “pS6 in peripheral tissues relative to vehicle” value (mTORC1 pathway (pS6); tissues collected 1 hour later) was “increased pS6” and the “accelerating rotarod motor performance over 4-day trial” value (N171-82Q HD mice [2]; 12 weeks of age, oral 160 mg/kg daily for 6 weeks) was “improved rotarod motor performance”. For the same molecule, the “adverse effects to the treatment” value (N171-82Q HD mice [2]; NV-5297 treatment, response to reviewers) was “No mice had explicit adverse effects”, the forelimb grip strength (N171-82Q HD mice [2]; [3]) was “did not impact” and the weight loss (N171-82Q HD mice [2]; [3]) was “did not impact”.
